Reference: publication PMC6131557, “Selective Cytotoxicity of Dihydroorotate Dehydrogenase Inhibitors to Human Cancer Cells Under Hypoxia and Nutrient-Deprived Conditions” (Frontiers in Pharmacology, 2018)
Like-named read-outs stand apart in the source and are kept apart here.

How the values were obtained:
[1] = system: U251; assay: 39-cancer cell panel assay: U251; type: cell-based; details: Homo sapiens, U-251, CNS
[2] = system: A549; assay: 39-cancer cell panel assay: A549; type: cell-based; details: Homo sapiens, Lu
[3] = system: OVCAR-8; assay: 39-cancer cell panel assay: OVCAR-8; type: cell-based; details: Homo sapiens, Ov
[4] = system: NCI-H226; assay: 39-cancer cell panel assay: NCI-H226; type: cell-based; details: Homo sapiens, Lu
[5] = system: LOX-IMVI; assay: 39-cancer cell panel assay: LOX-IMVI; type: cell-based; details: Homo sapiens, Me
[6] = system: St-4; assay: 39-cancer cell panel assay: St-4; type: cell-based; details: Homo sapiens
[7] = system: SK-OV-3; assay: 39-cancer cell panel assay: SK-OV-3; type: cell-based; details: Homo sapiens
[8] = system: MCF-7; assay: 39-cancer cell panel assay: MCF-7; type: cell-based; details: Homo sapiens, MCF7, Br
[9] = system: MKN1; assay: 39-cancer cell panel assay: MKN1; type: cell-based; details: Homo sapiens, MKN-1, St
[10] = system: ACHN; assay: 39-cancer cell panel assay: ACHN; type: cell-based; details: Homo sapiens, Re
[11] = system: SNB-75; assay: 39-cancer cell panel assay: SNB-75; type: cell-based; details: Homo sapiens, CNS
[12] = system: BSY-1; assay: 39-cancer cell panel assay: BSY-1; type: cell-based; details: Homo sapiens, Br
[13] = system: HCC2998; assay: 39-cancer cell panel assay: HCC2998; type: cell-based; details: Homo sapiens, HCC 2998, Co
[14] = system: MKN7; assay: 39-cancer cell panel assay: MKN7; type: cell-based; details: Homo sapiens, MKN-7, St
[15] = molecular target: Complex II–III; assay: Succinate-cytochrome c reductase (complexes II–III) activity, bovine mitochondria; type: biochemical
Protocol: (§1) Recombinant human DHODH was purified, crystallized, and assayed as previously described ([Inaoka et al., 2016]) without modification. Bovine mitochondrial fractions were prepared as previously described ([Kita et al., 1988]) and NADH dehydrogenase (complex I), succinate:quinone reductase (complex II), quinol oxidase (complexes III–IV), NADH-cytochrome c reductase (complexes I–III), and succinate-cytochrome c (complexes II–III) activities were assayed following an established method ([Takamiya et al., 1986]; [Miyadera et al., 2001]; [Matsumoto et al., 2008]; [Kido et al., 2010]; [Nihashi et al., 2017]).

[16] = system: MDA-MB-231; assay: 39-cancer cell panel assay: MDA-MB-231; type: cell-based; details: Homo sapiens, Br
[17] = system: HCT-116; assay: 39-cancer cell panel assay: HCT-116; type: cell-based; details: Homo sapiens, Co
[18] = system: OVCAR-3; assay: 39-cancer cell panel assay: OVCAR-3; type: cell-based; details: Homo sapiens, Ov
[19] = system: RXF-631L; assay: 39-cancer cell panel assay: RXF-631L; type: cell-based; details: Homo sapiens, Re
[20] = system: OVCAR-5; assay: 39-cancer cell panel assay: OVCAR-5; type: cell-based; details: Homo sapiens, Ov
[21] = system: MKN74; assay: 39-cancer cell panel assay: MKN74; type: cell-based; details: Homo sapiens, MKN-74, St
[22] = system: PC-3; assay: 39-cancer cell panel assay: PC-3; type: cell-based; details: Homo sapiens, Pro
[23] = system: NCI-H460; assay: 39-cancer cell panel assay: NCI-H460; type: cell-based; details: Homo sapiens, Lu
[24] = system: HDF cells; assay: Cytotoxicity assay (Cell Counting Kit-8 / WST-8) on HDF cells; type: cell-based; details: Homo sapiens
Protocol: (§2) For hypoxia and nutrient-deprived culture conditions, cells were incubated under 1% oxygen in glucose and glutamine-free DMEM (Gibco) without FBS.
(§3) DLD-1 or HDF cells were seeded at 2.5 × 10^4 cells/well on a 96-well plate with normal medium, and cultured overnight under normal culture condition. The cells were washed with PBS and the medium was replaced to either normal medium or glucose and glutamine-free DMEM without FBS. Test compounds or DMSO as a control were added to the wells. The cells in normal medium were cultured under normal culture conditions, while cells in nutrient-deprived medium were cultured under hypoxia condition. After 24 or 48 h incubation, the cells were washed with PBS, 100 μl of fresh normal medium, and 10 μl of Cell Counting Kit-8 solution (Donjindo, Japan) was added to each well. After 3 h incubation under normal culture condition, the absorbance was measured at 450 nm using SpectraMax M2e-TUY microplate reader (Molecular Devices). Cell viability of test wells was calculated based on absorbance of control wells containing DMSO according to manufacturer’s protocol.

[25] = system: DMS114; assay: 39-cancer cell panel assay: DMS114; type: cell-based; details: Homo sapiens, DMS-114, Lu
[26] = system: MKN28; assay: 39-cancer cell panel assay: MKN28; type: cell-based; details: Homo sapiens, MKN-28, St
[27] = system: DLD-1 cells; assay: Cytotoxicity assay (Cell Counting Kit-8 / WST-8) on DLD-1 cells; type: cell-based, human; details: for IC50: Homo sapiens
Protocol: as §2, §3

[28] = system: OVCAR-4; assay: 39-cancer cell panel assay: OVCAR-4; type: cell-based; details: Homo sapiens, Ov
[29] = system: DU-145; assay: 39-cancer cell panel assay: DU-145; type: cell-based; details: Homo sapiens, Pro
[30] = system: HT-29; assay: 39-cancer cell panel assay: HT-29; type: cell-based; details: Homo sapiens, Co
[31] = system: NCI-H522; assay: 39-cancer cell panel assay: NCI-H522; type: cell-based; details: Homo sapiens, Lu
[32] = system: Complex I; assay: NADH dehydrogenase (complex I) activity, bovine mitochondria; type: biochemical; details: at 5 μM
Protocol: as §1

[33] = molecular target: T1, human dihydroorotate dehydrogenase (HsDHODH) (Homo sapiens, UniProt Q02127); assay: Inhibition of recombinant human DHODH enzyme activity; type: biochemical; details: recombinant human DHODH; purified enzyme fixed at 10 nM; read-out: IC50 (nM), inhibition of human DHODH
T1 construct: made in house

[34] = system: KM-12; assay: 39-cancer cell panel assay: KM-12; type: cell-based, human; details: Co
[35] = system: SF-539; assay: 39-cancer cell panel assay: SF-539; type: cell-based; details: Homo sapiens, CNS
[36] = system: SF-295; assay: 39-cancer cell panel assay: SF-295; type: cell-based; details: Homo sapiens, CNS
[37] = system: SNB-78; assay: 39-cancer cell panel assay: SNB-78; type: cell-based; details: Homo sapiens, CNS
[38] = molecular target: Complexes I–III; assay: NADH-cytochrome c reductase (complexes I–III) activity, bovine mitochondria; type: biochemical
Protocol: as §1

[39] = read-out: IC50 (μM) HDF (24 h) Hypoxia nutrient (-), hypoxia (1% oxygen), nutrient (-)
[40] = read-out: IC50 (μM) HDF (24 h) Normoxia nutrient (+), normoxia, nutrient (+)
[41] = read-out: IC50 (μM) DLD-1 (24 h) Hypoxia nutrient (-), DLD-1, 24 h, hypoxia (1% oxygen), nutrient (-)
[42] = read-out: IC50 (μM) DLD-1 (24 h) Normoxia nutrient (+), DLD-1, 24 h, normoxia, nutrient (+)
[43] = DLD-1, 48 h, hypoxia (1% oxygen), nutrient (-), read-out: IC50 (μM) DLD-1 (48 h) Hypoxia nutrient (-)
[44] = DLD-1, 48 h, normoxia, nutrient (+), read-out: IC50 (μM) DLD-1 (48 h) Normoxia nutrient (+)

T1 sequence (Q02127 whole entry): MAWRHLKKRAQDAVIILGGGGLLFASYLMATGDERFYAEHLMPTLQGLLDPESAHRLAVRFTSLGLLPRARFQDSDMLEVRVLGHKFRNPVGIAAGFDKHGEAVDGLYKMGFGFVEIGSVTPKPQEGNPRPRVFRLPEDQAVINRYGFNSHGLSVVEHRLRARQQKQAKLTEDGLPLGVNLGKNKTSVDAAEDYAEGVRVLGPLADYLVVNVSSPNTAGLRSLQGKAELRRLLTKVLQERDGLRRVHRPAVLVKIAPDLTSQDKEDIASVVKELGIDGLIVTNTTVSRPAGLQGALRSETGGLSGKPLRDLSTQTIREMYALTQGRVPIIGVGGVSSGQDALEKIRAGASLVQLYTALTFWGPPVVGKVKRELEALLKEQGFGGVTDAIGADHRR

C/C(=C\Cc1c(O)c(Cl)c(C)c(C=O)c1O)CC/C=C(\C)[C@@H]1CC(=O)C(C)(C)O1 [Compound 1, ascofuranone]
GI50 [1]: 1.5 µM | GI50 [2]: 7.6 µM | GI50 [3]: 9.5 µM | GI50 [4]: 15 µM | GI50 [5]: 2.8 µM | GI50 [6]: 14 µM | GI50 [7]: 13 µM | GI50 [8]: 9 µM | GI50 [9]: 14 µM | GI50 [10]: 10 µM | GI50 [11]: 23 µM | GI50 [12]: 16 µM | GI50 [13]: 17 µM | GI50 [14]: 15 µM | IC50 [15]: 13 ± 1.7 µM | GI50 [16]: 7.4 µM | GI50 [17]: 5.1 µM | GI50 [18]: 8 µM | GI50 [19]: 12 µM | GI50 [20]: 7.6 µM | GI50 [21]: 13 µM | GI50 [22]: 13 µM | GI50 [23]: 2 µM | IC50 [24, 39]: 1.5 ± 0.18 µM | IC50 [24, 40]: > 100 µM | GI50 [25]: 19 µM | GI50 [26]: 9.7 µM | IC50 [27, 41]: 1.2 ± 0.79 µM | IC50 [27, 42]: > 100 µM | IC50 [27, 43]: 0.24 ± 0.057 µM | IC50 [27, 44]: > 100 µM | GI50 [28]: 5.9 µM | GI50 [29]: 11 µM | GI50 [30]: 6.6 µM | GI50 [31]: 8.4 µM | Inhibition (%) Complex I [32]: 11 ± 5.8% | IC50 [33]: 37.5 ± 12 nM | GI50 (μM) KM-12 [34]: 9.3 µM | GI50 [35]: 1.7 µM | GI50 [36]: 5.3 µM | GI50 [37]: 23 µM | IC50 [38]: 1.5 ± 0.04 µM

CC(C)=CCC/C(C)=C/CC/C(C)=C/Cc1c(O)c(Cl)c(C)c(C=O)c1O [Compound 8]
GI50 [1]: 0.43 µM | GI50 [2]: 0.77 µM | GI50 [3]: 0.97 µM | GI50 [4]: 10 µM | GI50 [5]: 0.61 µM | GI50 [6]: 1.1 µM | GI50 [7]: 37 µM | GI50 [8]: 1.3 µM | GI50 [9]: 8.2 µM | GI50 [10]: 0.79 µM | GI50 [11]: 0.7 µM | GI50 [12]: 13 µM | GI50 [13]: 12 µM | GI50 [14]: 2.1 µM | IC50 [15]: 0.12 ± 0.013 µM | GI50 [16]: 2.8 µM | GI50 [17]: 0.46 µM | GI50 [18]: 1.9 µM | GI50 [19]: 11 µM | GI50 [20]: 6.6 µM | GI50 [21]: 1.9 µM | GI50 [22]: 1.2 µM | GI50 [23]: 0.21 µM | IC50 [24, 39]: 0.16 ± 0.023 µM | IC50 [24, 40]: 61 ± 5.3 µM | GI50 [25]: 2.5 µM | GI50 [26]: 1.3 µM | IC50 fold lower than 1 ([27]; DLD-1, 24 h, hypoxia nutrient-deprived, versus compound 1): 20 fold | IC50 [27, 41]: 0.066 ± 0.042 µM | IC50 [27, 42]: 81 ± 24 µM | IC50 [27, 43]: 0.024 ± 0.003 µM | IC50 [27, 44]: 38 ± 3.3 µM | selectivity ratio, microenvironment versus normal culture condition ([27]; hypoxia and nutrient-deprived versus normal culture): over 1000 fold | GI50 [28]: 13 µM | GI50 [29]: 0.26 µM | GI50 [30]: 1.1 µM | GI50 [31]: 1.2 µM | Inhibition (%) Complex I [32]: 43 ± 1.8% | IC50 [33]: ~5 nM | GI50 (μM) KM-12 [34]: 2.0 µM | GI50 [35]: 0.24 µM | GI50 [36]: 1.3 µM | GI50 [37]: 16 µM | IC50 [38]: 0.048 ± 0.001 µM
